Experimental data: US11905272B1, “3-(2-(4-methoxypyridin-3-yl)-4,5-diphenyl-1H-imidazol-1-yl)-N,N-dimethylpropan-1-amine as an anti-cancer compound” (KING FAISAL UNIVERSITY, priority 2023, dated 2024)

How the values were obtained:
[1] = tested on: human osteosarcoma cells (MG-63); assay: Assessment of cytotoxicity by SRB assay (MG-63); format: cell-based; conditions: 0.01 μM to 100 μM, 72 h
Description: (§1) The human prostate cancer cells (PC3) and human osteosarcoma cells (MG-63) were obtained from Nawah Scientific Inc. (Mokatam, Cairo, Egypt) and cultured in DMEM (Dulbecco's modified eagle's medium), Gibco, USA, supplemented with fetal bovine serum (FBS) at a concentration of 10% and 100 U/mL of penicillin and streptomycin (PS). The Cells were incubated at 37° C. in a humidified environment that contained 5% CO2.
(§2) Cells were seeded in 96-well plates as aliquots of 100 μL cell suspension and incubated in a complete media for 24 h. Afterward, cells were treated with 3-(2-(4-methoxypyridin-3-yl)-4,5-diphenyl-1H-imidazol-1-yl)-N,N-dimethylpropan-1-amine at diverse concentrations ranging from 0.01 μM to 100 μM for 72 h. Then, cells were fixed at 4° C. for one hour with 150 μL of 10% trichloroacetic acid (TCA). After washing the cells five times with distilled water, 70 μL of sulforhodamine (SRB) solution (0.4% w/v) was added and incubated for 10 min at room temperature in a dark place. […] Then, 150 μL of Tris pH 10.5 (10 mM) was added, and the absorbance was measured at 540 nm using a BMG LABTECH®-FLUOstar Omega microplate reader (Ortenberg, Germany). Half maximal inhibitory concentrations (IC50) values were calculated for each experiment using GraphPad Prism 6 software. […]
(§3) The inhibition was calculated using the following equation: Inhibition %=100−Average Viability

[2] = tested on: human prostate cancer cells (PC3); assay: Assessment of cytotoxicity by SRB assay (PC3); format: cell-based; conditions: 0.01 μM to 100 μM, 72 h
Description: as §1, §2, §3

## COc1ccncc1-c1nc(-c2ccccc2)c(-c2ccccc2)n1CCCN(C)C [3-(2-(4-methoxypyridin-3-yl)-4,5-diphenyl-1H-imidazol-1-yl)-N,N-dimethylpropan-1-amine]
[1]
  antiproliferative activity against osteosarcoma (MG-63) cells: excellent antiproliferative activities
other
  melting point: 128 to 131 °C
[2]
  antiproliferative activity against cancer cells (PC3): excellent antiproliferative activities
